Like-named read-outs stand apart in the source and are kept apart here.
Legend:
[1] = biological target: T1, PH-TH^E41K (isolated PH-TH domain of BTK, E41K mutant) (Bos taurus, UniProt Q3ZC95, E41K); assay: Isothermal titration calorimetry, ligand binding to isolated PH-TH domain E41K mutant; settings: ITC
T1 construct: amino acid residue number 4–170; His-SUMO (N, cleaved yes); made in house; host or cells: E. coli BL21-DE3
Procedure: (§1) The isothermal titration calorimetry experiments were performed using MicroCal ITC (GE Healthcare) and MicroCal PEAQ-ITC (Malvern). The PH-TH domain was buffer exchanged to 20 mM HEPES, 150 mM NaCl, pH 7.5. During the titration, 25 μM protein in the cell was titrated with a ligand at the protein-to-ligand ratio of 1: 5.5. All ITC titrations were performed at 20 °C. The initial injection of 0.5 μl was excluded from the data analysis. During the titration, 3 μl of ligand was injected in 13 steps, and each injection step was separated by 180 s. The protein solution was stirred at 300 rpm during the titration.

BTK PH-TH E41K/R28H = biological target: T2, BTK PH-TH E41K/R28H (Bos taurus, UniProt Q3ZC95, E41K/R28H); assay: Isothermal titration calorimetry, IP6 binding to PH-TH E41K/R28H; settings: ITC
T2 construct: amino acid residue number 4–170; His-SUMO (N, cleaved yes); made in house; host or cells: E. coli BL21-DE3
Procedure: as §1, with “analysis.” for “analysis. During the titration, 3 μl of ligand was injected in 13 steps, and each injection step was separated by 180 s. The protein solution was stirred at 300 rpm during the titration.”

BTK PH-TH E41K/R49S = biological target: T3, BTK PH-TH E41K/R49S (Bos taurus, UniProt Q3ZC95, E41K/R49S); assay: Isothermal titration calorimetry, IP6 binding to PH-TH E41K/R49S; settings: ITC
T3 construct: amino acid residue number 4–170; His-SUMO (N, cleaved yes); made in house; host or cells: E. coli BL21-DE3
Procedure: as §1, with “analysis.” for “analysis. During the titration, 3 μl of ligand was injected in 13 steps, and each injection step was separated by 180 s. The protein solution was stirred at 300 rpm during the titration.”

PH-TH^E41K [2] = biological target: T4, PH-TH^E41K (Bos taurus, UniProt Q3ZC95, E41K); assay: Dynamic light scattering of PH-TH domain with IP6; settings: in the presence of IP6
T4 construct: amino acid residue number 4–170; His-SUMO (N, cleaved yes); made in house; host or cells: E. coli BL21-DE3
Procedure: (§2) The Dynamic Light Scattering experiments were conducted using Malvern Zetasizer DLS Detectors using 1.5 ml plastic cuvettes. The samples were prepared in a buffer containing 25 mM Tris-Cl, 100 mM NaCl, 1 mM DTT, and pH 7.2. The experiment included three measurements of ten runs each. The theoretical calculations of the hydrodynamic radius of the proteins were performed using Hydropro ([51]).

[3] = biological target: T5, wild-type PH-TH domain of BTK (Bos taurus, UniProt Q3ZC95); assay: Dynamic light scattering of PH-TH domain with IP6; settings: IP6 bound PH-TH domain
T5 construct: amino acid residue number 4–170; His-SUMO (N, cleaved yes); made in house; host or cells: E. coli BL21-DE3
Procedure: as §2

PH-TH^E41K [4] = biological target: T4, PH-TH^E41K; assay: Thermal denaturation by circular dichroism spectroscopy; settings: at the Tm of the apo state, equimolar ligand
Procedure: The melting temperature of the PH-TH domain was determined from the Circular Dichroism (CD) spectrum recorded at increasing temperatures (20° to 76 °C). For each sample, the CD spectra from 300 to 190 nm were recorded using a Jasco-J1500 spectropolarimeter with a temperature increment of 4 °C. CD spectra were recorded with 5 μM protein in 20 mM Sodium phosphate buffer pH 7.4 and in the absence or in the presence of an equimolar ligand. The measured ellipticity data was converted into molar ellipticity ([39]). The ΔGUnfolding was calculated considering the simplest two-step unfolding model, where a protein exists in a folded (F) and an unfolded (U) state as described previously ([40], [41]). The fraction unfolded [U] protein at a given temperature is:(1) [U]=(θT−θF)/(θU−θF) Where, θF and θU are the molar ellipticity of the fully folded and unfolded state at 218 nm, θT is the molar ellipticity at a given temperature. Considering that at a given temperature, the sum of the unfolded and folded [F] fraction of the protein is 1, the equilibrium constant, KUnfolding is:(2) KUnfolding=[U]/1−[U] […] The ΔΔGunfolding was calculated from the difference between the ΔG of the IP6 bound ΔGholo and ΔGapo state, measured at the Tm of the corresponding apo PH-TH construct.

BTK^E41K = biological target: T6, BTK^E41K (Mus musculus, UniProt P35991, E41K); assay: TIRF microscopy of membrane-bound BTK-mCherry in live CHO cells after IP6 stimulation; format: cell-based, Chinese Hamster
T6 construct: expressed in transfected cells; host or cells: CHO cells, transient transfection with pCDNA BTK-mCherry
Procedure: For Total internal reflection fluorescence (TIRF) microscopy, CHO cells were seeded in a glass bottom dish and transfected with 500 ng DNA. After 16 h of post-transfection, cells were serum starved by incubating in Opti-MEM serum-free media for 6 h. The images of lived CHO cells were recorded for 10 min before and after IP6 treatment. The TIRF images were acquired on a Nikon Eclipse Ti2 inverted microscope equipped with a Nikon 100 × 1.49 numerical aperture oil-immersion TIRF objective, a TIRF illuminator, a Perfect Focus system (PFS), and a motorized stage. The critical angle and the refractive index were set to 63° and 1.515, respectively ([53]). The samples were excited at 561 nm using an LU-N4 laser unit (Nikon, Tokyo, Japan) with solid-state lasers. Image acquisition was done using the Nikon NIS-Elements software. Live cell images were acquired at 1-min intervals for 10 min using an EMCCD camera, with an exposure time of 200 ms. The images were processed and analyzed using Fiji. Out-of-focus fluorescence in the acquired images is removed by deconvolution ([54]). […] The fluorescence intensity of each frame was quantified using “create spectrum jru V1” routine of Fiji. The half-life of fluorescence intensity at the plasma membrane was determined by fitting the fluorescence decay at indicated time points to a first-order kinetic equation using GraphPad Prism version 9.5.1.

PH-TH^E41K [5] = biological target: T4, PH-TH^E41K; assay: Size-exclusion chromatography of PH-TH domain with ligand
Procedure: Size-exclusion chromatography of various constructs of the PH-TH domain was performed using the Superdex-200 10/300 Gl column. For the apo PH-TH domain, the column was equilibrated with running buffer (25 mM Tris-Cl, 100 mM NaCl, 1 mM DTT, pH 7.2), and 500 μl of 75 μM protein was loaded into the column, at a flow rate of 0.3 ml/min and at 8 °C. The elution profile was recorded, and the retention time of the protein was calculated. For the ligand-bound samples, the protein was mixed with ligand at a protein-to-ligand ratio of 1:4, and incubated at 4 °C for 15 min before loading into the size-exclusion column. Before loading the sample, the column was pre-equilibrated with a running buffer containing the ligand.

BTK wild-type = BTK wild-type (Mus musculus, UniProt P35991); assay: Immunofluorescence of Y551 phosphorylation in transiently transfected CHO cells; settings: 500 μM IP6 for 1 h
Procedure: (§3) The IP6-mediated activation of BTK was determined by immunofluorescence and immunoblot in Chinese Hamster Ovary (CHO) cell line transiently transfected with BTK-mCherry cloned in pCDNA. […] Before activation, transfected cells were serum-starved for 6 h in opti-MEM, followed by incubation with 500 μM IP6 for 1 h in opti-MEM. For Immunoblot, cells were washed with ice-cold PBS and then incubated in RIPA buffer [10 mM Tris-Cl (pH 8.0), 140 mM NaCl, 1 mM EDTA, 0.1% SDS, and 1% Triton X-100] containing protease and phosphatase inhibitors (2 mM Benzamidine, 1 mM PMSF and 1 mM Sodium orthovanadate) for 10 min. […]
(§4) All images were acquired with the Leica SP8 confocal platform using an oil immersion HC PL APO CS2 63 × objective (NA 1.4) at 3.0X digital zoom. […] The level of BTK on the membrane or cytoplasm was determined from the intensity of mCherry measured at λex = 552 nm and λem = 576 to 651 nm, respectively. The Y551 phosphorylation was determined from the intensity of FITC tagged to the secondary antibody and measured at λex = 488 nm and λem = 505 to 531 nm. […] The intensity of mCherry or FITC at the membrane was determined by subtracting the respective intensities of ROI2 from ROI1. Whereas cytoplasmic intensity of mCherry or FITC was determined by subtracting the respective intensities of ROI3 from ROI2. […]

BTK^E41K/R28H = BTK^E41K/R28H (Mus musculus, UniProt P35991, E41K/R28H); assay: as above; settings: 500 μM IP6 for 1 h
Sequence of BTK^E41K/R28H (P35991 whole entry R28H/E41K): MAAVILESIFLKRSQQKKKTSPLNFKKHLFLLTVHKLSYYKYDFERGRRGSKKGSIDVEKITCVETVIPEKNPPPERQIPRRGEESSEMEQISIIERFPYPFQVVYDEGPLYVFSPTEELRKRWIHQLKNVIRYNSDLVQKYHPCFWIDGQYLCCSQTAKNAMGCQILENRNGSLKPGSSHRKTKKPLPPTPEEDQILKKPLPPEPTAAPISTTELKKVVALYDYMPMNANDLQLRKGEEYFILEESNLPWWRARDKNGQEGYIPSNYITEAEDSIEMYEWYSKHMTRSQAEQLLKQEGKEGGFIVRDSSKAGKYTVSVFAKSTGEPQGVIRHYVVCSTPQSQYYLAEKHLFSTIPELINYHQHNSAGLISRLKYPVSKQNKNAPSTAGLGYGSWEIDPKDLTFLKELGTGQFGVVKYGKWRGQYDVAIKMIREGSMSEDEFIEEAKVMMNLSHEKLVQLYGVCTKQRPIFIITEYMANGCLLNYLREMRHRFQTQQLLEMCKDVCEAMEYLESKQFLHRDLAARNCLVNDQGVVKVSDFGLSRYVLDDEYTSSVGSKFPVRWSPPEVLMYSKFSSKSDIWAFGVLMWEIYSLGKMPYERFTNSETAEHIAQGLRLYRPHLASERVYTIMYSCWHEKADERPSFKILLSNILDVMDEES
Procedure: as §3, §4

T2 sequence (Q3ZC95 4-170 R28H/E41K): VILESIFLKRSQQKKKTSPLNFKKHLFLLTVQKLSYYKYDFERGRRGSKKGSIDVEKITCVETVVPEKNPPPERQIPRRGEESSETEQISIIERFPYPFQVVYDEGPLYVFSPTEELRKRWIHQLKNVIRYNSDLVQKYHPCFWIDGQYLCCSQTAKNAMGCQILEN
T4 sequence (Q3ZC95 4-170 E41K): as the sequence (Q3ZC95 4-170 R28H/E41K) above, with H25R counted along it
T1 sequence (Q3ZC95 4-170 E41K): as the sequence (Q3ZC95 4-170 R28H/E41K) above, with H25R counted along it
T3 sequence (Q3ZC95 4-170 E41K/R49S): as the sequence (Q3ZC95 4-170 R28H/E41K) above, with H25R, R46S counted along it
T5 sequence (Q3ZC95 4-170): as the sequence (Q3ZC95 4-170 R28H/E41K) above, with H25R, K38E counted along it
Sequence of BTK wild-type (P35991 whole entry): as the sequence (P35991 whole entry R28H/E41K) above, with H28R, K41E counted along it
T6 sequence (P35991 whole entry E41K): as the sequence (P35991 whole entry R28H/E41K) above, with H28R counted along it

Structure (SMILES) | ∆H1 ([1]; Table S1) | ∆H2 ([1]; Table S1) | Kd ([1]; Table S1, 20 °C, read-out: Kd2) | Kd ([1]; two-site independent binding model, strong site, 20 °C, read-out: Kd1) | Kd ([1]; two-site independent binding model, weak site, 20 °C, read-out: Kd2) | ∆H1 (BTK PH-TH E41K/R28H; Table S1) | Kd (BTK PH-TH E41K/R28H; Table S1, read-out: Kd1) | Kd (BTK PH-TH E41K/R28H; one-site fit, weak binding to peripheral lipid binding site, read-out: Kd) | ∆H1 (BTK PH-TH E41K/R49S; Table S1) | Kd (BTK PH-TH E41K/R49S; one-site fit, binding to canonical lipid binding site, read-out: Kd (Kd1)) | hydrodynamic radius (PH-TH^E41K [2]) | hydrodynamic radius [3] | ΔΔGunfolding (ΔGholo – ΔGapo) (PH-TH^E41K [4]) | critical concentration at which BTK^E41K comes out of the membrane (BTK^E41K) | apparent size of migrating species in size-exclusion column (PH-TH^E41K [5]; in the presence of IP6 (300 μM)) | activation (Y551 phosphorylation) of cytosolic fraction of BTK (BTK wild-type) | activation (Y551 phosphorylation) of BTK (BTK^E41K/R28H) | binding to PH-TH^E41K ([1]; 25 μM protein titrated with 137 μM ligand) | dimerization of PH-TH^E41K (PH-TH^E41K [5]; size-exclusion chromatography, in the presence of ligand)
O=P(O)(O)OC1C(OP(=O)(O)O)C(OP(=O)(O)O)C(OP(=O)(O)O)C(OP(=O)(O)O)C1OP(=O)(O)O (stereo not shown) [IP6, inositol hexakisphosphate] | -4.749 ± 0.159 kcal/mol | -5.098 ± 2.36 kcal/mol | 1280 ± 366 nM | 152 ± 18 nM | 1300 ± 400 nM | -1.562 ± 1.008 kcal/mol | 2420 ± 151 nM | 2400 ± 150 nM | -4.16 ± 0.55 kcal/mol | 622 ± 77 nM | 3.14 ± 0.48 nm | 2.18 ± 0.10 nm | 1.49 ± 0.79 kcal/mol | 0.5 mM | ~44 kDa | activates | does not activate | – | –
O=P(O)(O)O[C@@H]1[C@H](O)[C@H](O)[C@@H](OP(=O)(O)O)[C@H](OP(=O)(O)O)[C@H]1O [IP3] | – | – | – | – | – | – | – | – | – | – | – | – | – | – | – | – | – | does not bind | does not dimerize

Source: paper PMC11338949, “E41K mutation activates Bruton’s tyrosine kinase by stabilizing an inositol hexakisphosphate-dependent invisible dimer” (The Journal of Biological Chemistry, 2024)
